≈ marks a conversion by molar mass, not a printed value.
What was measured:
[1] = Intrinsic clearance in rat hepatocytes assessed as parent compound disappearance at 1 uM per 10^6 cells; assay type: ADME, cell-based, Hepatocyte; conditions: read-out: CLH
[2] = Solubility in 0.1 M phosphate buffer at pH 7.4 at 25 degC incubated for 24 hrs
[3] = Lipophilicity, log D of the compound at pH 7.4 by chromatographic method; conditions: buffer
[4] = Octanol/water partition coefficient, log D of the compound at pH 7.4; assay type: physicochemical
[5] = biological target: T1, Diacylglycerol O-acyltransferase 1 (Homo sapiens, UniProt O75907)
T1 sequence (O75907 whole entry): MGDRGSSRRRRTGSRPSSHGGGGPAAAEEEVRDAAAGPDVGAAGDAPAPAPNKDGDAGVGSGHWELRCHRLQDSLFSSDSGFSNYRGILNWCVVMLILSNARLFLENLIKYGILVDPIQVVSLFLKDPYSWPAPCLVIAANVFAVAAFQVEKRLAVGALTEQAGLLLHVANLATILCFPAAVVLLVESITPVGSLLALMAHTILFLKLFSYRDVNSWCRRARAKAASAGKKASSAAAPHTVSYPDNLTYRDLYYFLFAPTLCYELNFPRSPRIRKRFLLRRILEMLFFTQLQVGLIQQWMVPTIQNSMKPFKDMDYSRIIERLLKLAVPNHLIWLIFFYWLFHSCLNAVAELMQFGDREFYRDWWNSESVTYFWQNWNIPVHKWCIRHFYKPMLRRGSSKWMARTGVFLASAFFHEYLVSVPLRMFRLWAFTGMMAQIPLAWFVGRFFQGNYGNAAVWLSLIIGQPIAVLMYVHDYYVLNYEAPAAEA
Description: (§1) Inhibition of human recombinant DGAT1 expressed in Sf9 cells by liquid scintillography

[6] = biological target: T2, Sterol O-acyltransferase 1 (Homo sapiens, UniProt P35610)
T2 sequence (P35610 whole entry): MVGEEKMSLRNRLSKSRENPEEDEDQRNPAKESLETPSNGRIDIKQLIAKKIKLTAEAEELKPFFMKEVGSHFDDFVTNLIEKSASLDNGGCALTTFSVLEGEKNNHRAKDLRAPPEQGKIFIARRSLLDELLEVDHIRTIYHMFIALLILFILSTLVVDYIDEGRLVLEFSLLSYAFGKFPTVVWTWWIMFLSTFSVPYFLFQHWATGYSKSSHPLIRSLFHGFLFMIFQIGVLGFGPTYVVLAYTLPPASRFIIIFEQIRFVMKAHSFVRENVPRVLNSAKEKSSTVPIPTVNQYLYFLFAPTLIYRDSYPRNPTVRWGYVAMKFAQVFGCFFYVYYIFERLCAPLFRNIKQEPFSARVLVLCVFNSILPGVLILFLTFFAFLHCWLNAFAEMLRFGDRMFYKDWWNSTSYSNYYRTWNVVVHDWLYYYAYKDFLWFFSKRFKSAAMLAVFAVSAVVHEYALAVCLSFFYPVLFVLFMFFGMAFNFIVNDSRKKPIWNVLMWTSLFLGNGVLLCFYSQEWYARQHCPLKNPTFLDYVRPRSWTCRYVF
Description: Inhibition of human ACAT1 by liquid scintillography

[7] = Half life in Han-Wistar rat at 2.54 to 5.4 uM/kg, po; assay type: ADME, organism-based; conditions: in vivo
[8] = Apparent permeability from apical to basolateral side in MDCK cells at pH 7.4; conditions: dog
[9] = Fraction unbound in human plasma at 37 degC by LC-UV/MS method based equilibrium dialysis method
[10] = Apparent permeability from apical to basolateral side in human Caco2 cells at pH 7.4; assay type: ADME, cell-based; conditions: Caco-2, pH 7.4
[11] = biological target: T1, Diacylglycerol O-acyltransferase 1; conditions: sf9
Description: as §1

Compound | chromatographic logD [3] | IC50 [5] | other results
Cc1ncc(C(N)=O)nc1-c1ccc([C@H]2CC[C@H](C(=O)O)CC2)cc1 | 0.22 | – | hepatocyte CLint at 1 µM [1]: 72 µL/min/1e6 cells; solubility at 24 h [2]: 1200 µM (≈ 407 µg/mL)
Cc1ccc(C(N)=O)nc1-c1ccc([C@H]2CC[C@H](CC(=O)O)CC2)cc1 | 1.3 | – | –
Cc1nc(C)c(-c2ccc([C@H]3CC[C@H](CC(=O)O)CC3)c(Cl)c2)nc1C(N)=O | 1.8 | – | –
Cc1ncc(-c2ccc([C@H]3CC[C@H](CC(=O)O)CC3)cc2)nc1C(N)=O | – | – | logD [4]: 1
Cc1nc(C)c(-c2ccc([C@H]3CC[C@H](CCC(=O)O)CC3)cc2)nc1C(N)=O | – | – | logD [4]: 1.6
NC(=O)c1cccc(-c2ccc([C@H]3CC[C@H](CC(=O)O)CC3)cc2)n1 | 0.8 | – | –
Cc1nc(C(C)C)c(-c2ccc([C@H]3CC[C@H](CC(=O)O)CC3)cc2)nc1C(N)=O | 2.6 | > 10000 nM | –
Cc1nc(C)c(-c2ccc([C@H]3CC[C@@H](CC(=O)O)CC3)c(F)c2)nc1C(N)=O | 1.2 | – | –
Cc1nc(C)c(-c2ccc3c(c2)CC[C@]32CC[C@@H](c3nnn[nH]3)CC2)nc1C(N)=O | 1.4 | – | –
Cc1nc(C)c(-c2ccc([C@H]3CC[C@H](CC(=O)O)CC3)c(F)c2)nc1C(N)=O | 1.3 | – | –
CC(C)(NC(=O)C[C@H]1CC[C@H](c2ccc(-c3cncc(C(N)=O)n3)cc2)CC1)C(=O)O | < 0.1 | 1100 nM | hepatocyte CLint at 1 µM [1]: < 2 µL/min/1e6 cells; solubility at 24 h [2]: > 100 µM
Cc1nc(C)c(-c2ccc([C@H]3CC[C@@H](CC(=O)O)CC3)c(Cl)c2)nc1C(N)=O | 1.5 | – | –
Cc1nc(C)c(-c2ccc3c(c2)CC[C@]32CC[C@@H](CC(=O)O)CC2)nc1C(N)=O | – | 30 nM | hepatocyte CLint at 1 µM [1]: < 2 µL/min/1e6 cells; IC50 [6]: 2400 nM; half-life [7]: 7.5 h; solubility at 24 h [2]: 562 µM (≈ 221 µg/mL); Papp A→B [8]: 12 ×10⁻⁶ cm/s; fraction unbound [9]: 0.013
Cc1nc(C)c(-c2ccc([C@H]3CC[C@H](CC(N)=O)CC3)cc2)nc1C(N)=O | 1.7 | – | hepatocyte CLint at 1 µM [1]: 77 µL/min/1e6 cells; Papp A→B [8]: 18 ×10⁻⁶ cm/s; fraction unbound [9]: 0.13
Cc1nc(C)c(-c2ccc(C34CCC(CC(=O)O)(CC3)CC4)cc2)nc1C(N)=O | 1.3 | – | –
NC(=O)C[C@H]1CC[C@H](c2ccc(-c3cncc(C(N)=O)n3)cc2)CC1 | 0.9 | 1900 nM | Papp A→B [10]: 13 ×10⁻⁶ cm/s; solubility at 24 h [2]: < 1 µM
Cc1nc(C)c(-c2ccc([C@H]3CC[C@H](CC(=O)NS(C)(=O)=O)CC3)cc2)nc1C(N)=O | 0.9 | 100 nM | Papp A→B [10]: 2 ×10⁻⁶ cm/s; hepatocyte CLint at 1 µM [1]: 17 µL/min/1e6 cells; solubility at 24 h [2]: 100 µM (≈ 44.5 µg/mL)
Cc1nc(-c2ccccc2)c(-c2ccc([C@H]3CC[C@H](CC(=O)O)CC3)cc2)nc1C(N)=O | 2.5 | > 10000 nM | –
Cc1ncc(C(=O)N2CCOCC2)nc1-c1ccc([C@H]2CC[C@H](CC(=O)O)CC2)cc1 | 0.7 | – | IC50 [11]: Not Active
NC(=O)c1nc(-c2ccc([C@H]3CC[C@H](CC(=O)O)CC3)cc2)cnc1N | 0.5 | > 10000 nM | –
N=C(N)c1cncc(-c2ccc([C@H]3CC[C@H](CC(=O)O)CC3)cc2)n1 | < 0 | > 33000 nM | –

Compound | chromatographic logD [3] | IC50 [5] | other results
Cc1nc(C)c(-c2ccc([C@H]3CC[C@H](Cc4nnn[nH]4)CC3)cc2)nc1C(N)=O | – | – | hepatocyte CLint at 1 µM [1]: < 2 µL/min/1e6 cells; half-life [7]: 9 h; fraction unbound [9]: 0.009
CCc1nc(C)c(C(N)=O)nc1-c1ccc([C@H]2CC[C@H](CC(=O)O)CC2)cc1 | 1.7 | > 9100 nM | –
NC(=O)c1cncc(-c2ccc([C@H]3CC[C@H](CC(=O)O)CC3)cc2)c1 | 0 | – | –
Cc1nc(-c2ccccc2)c(C(N)=O)nc1-c1ccc([C@H]2CC[C@H](CC(=O)O)CC2)cc1 | 2 | > 10000 nM | –
CCc1nc(C)c(-c2ccc([C@H]3CC[C@H](CC(=O)O)CC3)cc2)nc1C(N)=O | 1.5 | – | –
Cc1nc(C)c(-c2ccc([C@H]3CC[C@@H](CC(=O)O)CC3)cc2)nc1C(N)=O | – | 430 nM | –
Cc1ncc(C(=O)O)nc1-c1ccc([C@H]2CC[C@H](CC(=O)O)CC2)cc1 | < 0 | – | IC50 [11]: Not Active
Cc1ncc(C(N)=S)nc1-c1ccc([C@H]2CC[C@H](CC(=O)O)CC2)cc1 | 1.8 | – | –
Cc1ncc(C(=O)NCc2ccccc2)nc1-c1ccc([C@H]2CC[C@H](CC(=O)O)CC2)cc1 | 2.7 | – | IC50 [11]: Not Active
Cc1nc(C)c(-c2ccc([C@H]3CC[C@H](CCO)CC3)cc2)nc1C(N)=O | 3.1 | 690 nM | Papp A→B [10]: 58 ×10⁻⁶ cm/s; solubility at 24 h [2]: 4 µM (≈ 1.41 µg/mL)
Cc1nc(C)c(-c2ccc([C@H]3CC[C@H](CC(=O)O)CC3)cc2)nc1C(=O)O | – | – | IC50 [11]: Not Active
N#C/N=C(\N)c1cncc(-c2ccc([C@H]3CC[C@H](CC(=O)O)CC3)cc2)n1 | 1.2 | – | IC50 [11]: Not Active
NC(=O)c1cncc(-c2ccc([C@H]3CC[C@H](CCO)CC3)cc2)n1 | 2.3 | 1200 nM | Papp A→B [10]: 38 ×10⁻⁶ cm/s; hepatocyte CLint at 1 µM [1]: 36 µL/min/1e6 cells; solubility at 24 h [2]: 3 µM (≈ 0.976 µg/mL); fraction unbound [9]: 0.028
Cc1nc(C)c(-c2ccc3c(c2)CC[C@]32CC[C@@H](Cc3nnn[nH]3)CC2)nc1C(N)=O | 2 | – | –
Cc1nc(C)c(-c2ccc(C34CCC(C(=O)O)(CC3)CC4)cc2)nc1C(N)=O | 1.6 | 80 nM | hepatocyte CLint at 1 µM [1]: < 2 µL/min/1e6 cells; IC50 [6]: 15000 nM; half-life [7]: 7.3 h; solubility at 24 h [2]: 113 µM (≈ 42.9 µg/mL); Papp A→B [8]: 13 ×10⁻⁶ cm/s; fraction unbound [9]: 0.006
NCc1cncc(-c2ccc([C@H]3CC[C@H](CC(=O)O)CC3)cc2)n1 | < 0 | – | IC50 [11]: Not Active
Cc1nc(C(C)C)c(C(N)=O)nc1-c1ccc([C@H]2CC[C@H](CC(=O)O)CC2)cc1 | 2.6 | > 10000 nM | –
CNC(=O)c1cnc(C)c(-c2ccc([C@H]3CC[C@H](CC(=O)O)CC3)cc2)n1 | 0.9 | – | IC50 [11]: Not Active
Cc1ncc(C(=O)N(C)C)nc1-c1ccc([C@H]2CC[C@H](CC(=O)O)CC2)cc1 | 0.7 | – | IC50 [11]: Not Active
Cc1nc(C(F)F)c(C(N)=O)nc1-c1ccc([C@H]2CC[C@H](CC(=O)O)CC2)cc1 | 1.4 | – | –
Cc1ncc(C(N)=O)nc1-c1ccc([C@H]2CC[C@H](CC(=O)O)CC2)cc1 | 0.3 | 310 nM | Papp A→B [10]: 35 ×10⁻⁶ cm/s; hepatocyte CLint at 1 µM [1]: < 6 µL/min/1e6 cells; IC50 [6]: > 33000 nM; solubility at 24 h [2]: > 100 µM
